For 11 molecules, MIC results are on record in DBAASP.

Among the test systems are Bacillus subtilis; Bacillus subtilis 168; Escherichia coli UB1005.
Assay in all cases: ≥ marks a high value that may be exact or a test limit, other limits are often not marked, values filed in µg/mL are converted to µM
The subject of assay [1] is Escherichia coli DH5alpha.
In assay [2] the test system is Klebsiella pneumoniae ATCC 13883.
Assay [3] relates to Pseudomonas aeruginosa ATCC 27853.
In assay [4] the test system is Salmonella enterica subsp. enterica serovar Typhimurium ATCC 14028.
Assay [5] relates to Candida albicans ATCC 2002.
Assay [6] relates to Escherichia coli ATCC 25922.
The test system of assay [7] is Staphylococcus aureus ATCC 2592.
The test system of assay [8] is Staphylococcus aureus NCTC 8325.
For assay [9], the system named is Acinetobacter baumannii ATCC 19606.
Assay [10] concerns Bacillus subtilis ATCC 23857.
For assay [11], the system named is Klebsiella pneumoniae ATCC 700603.
The test system of assay [12] is Staphylococcus aureus ATCC 25923.
In assay [13] the test system is Salmonella enterica subsp. enterica serovar Typhimurium C77-31.
Assay [14] relates to Staphylococcus aureus ATCC 29213.
Assay [15] has as its system Staphylococcus epidermidis ATCC 12228.
The subject of assay [16] is Candida albicans ATCC 90028.

Converted amounts (≈) assume the structure as drawn. “And” between values parts separate entries of the source, which are not always exact repeats. Identical values can stand only once.

With `CC[C@H](C)[C@H](NC(=O)[C@H](Cc1cnc[nH]1)NC(=O)[C@H](C)NC(=O)[C@H](CCSC)NC(=O)[C@H](CC(N)=O)NC(=O)[C@H](CCCCN)NC(=O)[C@H](CCCCN)NC(=O)[C@@H](NC(=O)[C@@H](NC(=O)[C@H](CCCCN)NC(=O)[C@H](C)NC(=O)[C@H](Cc1ccccc1)NC(=O)[C@H](CC(C)C)NC(=O)[C@H](CCCCN)NC(=O)[C@@H]1CCCN1C(=O)[C@H](CC(C)C)NC(=O)[C@H](Cc1ccccc1)NC(=O)[C@@H](N)CS)[C@@H](C)CC)[C@@H](C)O)C(=O)N[C@@H](CCCN=C(N)N)C(=O)O` [CFLPKLFAKITKKNMAHIR], the minimum inhibitory concentration (MIC) was 10 µM (≈ 22.6 µg/mL) in assay [1]; 7 µM and 5 µM in [2]; 10 µM (≈ 22.6 µg/mL) in [3]; 15 µM (≈ 33.9 µg/mL) in [4].
`CC[C@H](C)[C@H](NC(=O)[C@H](C)NC(=O)[C@H](CS)NC(=O)[C@@H](NC(=O)[C@@H](NC(=O)[C@@H](NC(=O)[C@@H]1CCCN1C(=O)[C@@H](NC(=O)[C@@H](NC(=O)[C@@H](NC(=O)[C@H](C)NC(=O)[C@H](Cc1ccccc1)NC(=O)[C@H](CC(C)C)NC(=O)[C@H](CCCN=C(N)N)NC(=O)[C@H](CCCN=C(N)N)NC(=O)[C@H](CC(C)C)NC(=O)CNC(=O)[C@@H]1CCCN1C(=O)[C@@H](NC(=O)[C@@H](N)Cc1ccccc1)[C@@H](C)CC)[C@@H](C)O)C(C)C)C(C)C)[C@@H](C)O)C(C)C)C(C)C)C(=O)N[C@@H](CC(N)=O)C(=O)N[C@@H](CCCCN)C(=O)N[C@@H](CC(C)C)C(=O)N1CCC[C@H]1C(=O)N1CCC[C@H]1C(=O)NCC(=O)O` [FIPGLRRLFATVVPTVVCAINKLPPG]: the minimum inhibitory concentration (MIC) against Bacillus subtilis worked out at 18 µM (≈ 50 µg/mL); in assay [5], 2.27 µM (≈ 6.3 µg/mL); in assay [6], 4.5 µM (≈ 12.5 µg/mL); in [7], 4.5 µM (≈ 12.5 µg/mL).
Regarding `CC[C@H](C)[C@H](NC(=O)[C@@H](NC(=O)[C@H](CO)NC(=O)[C@@H]1CCCN1C(=O)[C@@H](NC(=O)[C@H](CC(C)C)NC(=O)[C@H](CCCCN)NC(=O)[C@H](Cc1ccccc1)NC(=O)[C@H](CC(C)C)NC(=O)CNC(=O)CNC(=O)[C@H](CC(C)C)NC(=O)[C@@H](N)Cc1ccccc1)C(C)C)C(C)C)C(=O)N[C@H]1CSSC[C@@H](C(=O)O)NC(=O)[C@H](CCCCN)NC(=O)[C@H](CCCCN)NC(=O)[C@H]([C@@H](C)O)NC(=O)[C@H](C(C)C)NC(=O)[C@H](C)NC1=O` [FLGGLFKLVPSVICAVTKKC], the minimum inhibitory concentration (MIC) in [6] and in assay [8] was 12.5 µM (≈ 26.5 µg/mL) in each case.
For `CC[C@H](C)[C@H](NC(=O)CNC(=O)[C@H](CO)NC(=O)[C@H](CCCN=C(N)N)NC(=O)[C@@H](N)Cc1ccccc1)C(=O)N[C@@H](CC(C)C)C(=O)N[C@@H](CCCCN)C(=O)N[C@@H](CC(C)C)C(=O)N[C@@H](C)C(=O)N[C@@H](CO)C(=O)N[C@@H](CCCCN)C(=O)N[C@H](C(=O)NCC(=O)N[C@@H](CO)C(=O)N[C@H](C(=O)N[C@@H](CC(C)C)C(=O)N[C@H]1CSSC[C@@H](C(=O)O)NC(=O)[C@H](CC(N)=O)NC(=O)[C@H](CCCCN)NC(=O)[C@H](CC(C)C)NC(=O)[C@H](C(C)C)NC(=O)[C@H](C)NC1=O)C(C)C)[C@@H](C)CC` [FRSGILKLASKIGSVLCAVLKNC], the MIC against Bacillus subtilis was found to be 20.7 µM (≈ 50 µg/mL); in [5], 10.3 µM (≈ 25 µg/mL); in assay [6], 20.7 µM (≈ 50 µg/mL); in assay [7], 10.3 µM (≈ 25 µg/mL).
For the molecule `CC[C@H](C)[C@H](NC(=O)[C@H](CCCCN)NC(=O)[C@H](CCCCN)NC(=O)[C@@H](NC(=O)[C@@H](NC(=O)[C@H](CCCCN)NC(=O)[C@H](CCCCN)NC(=O)[C@@H](NC(=O)[C@@H](NC(=O)CN)[C@@H](C)CC)[C@@H](C)CC)[C@@H](C)CC)[C@@H](C)CC)C(N)=O` [GIIKKIIKKI], the MIC in assay [9] was ≥ 64 µM; in the assay with Bacillus subtilis 168 it was 30 µM (≈ 34.6 µg/mL); in assay [10], 16 µM (≈ 18.4 µg/mL); in [6] it was ≥ 32 µM; in assay [1], ≥ 125 µM; in assay [11], ≥ 128 µM. Besides, the results for the minimal inhibitory concentration (MIC) in [3] and in assay [12] were ≥ 64 µM and ≥ 128 µM, respectively.
For the molecule `CC[C@H](C)[C@H](NC(=O)CNC(=O)[C@H](CCC(N)=O)NC(=O)[C@H](Cc1ccccc1)NC(=O)[C@H](Cc1ccccc1)NC(=O)[C@H](CCCCN)NC(=O)[C@H](CCCCN)NC(=O)[C@H](CC(C)C)NC(=O)[C@H](C)NC(=O)[C@H](CC(N)=O)NC(=O)[C@H](CC(C)C)NC(=O)CN)C(=O)N[C@@H](Cc1cnc[nH]1)C(=O)N[C@@H](CCC(=O)O)C(=O)N[C@@H](C)C(=O)N[C@H](C(=O)N[C@@H](CCCCN)C(=O)N[C@@H](CC(C)C)C(=O)N[C@H](C(=O)N[C@@H](CC(N)=O)C(=O)N[C@@H](CC(N)=O)C(=O)N[C@@H](Cc1cnc[nH]1)C(=O)N[C@H](C(=O)N[C@@H](CCC(N)=O)C(=O)O)C(C)C)[C@@H](C)CC)[C@@H](C)CC` [GLNALKKFFQGIHEAIKLINNHVQ], the minimum inhibitory concentration (MIC) in assay [6] is 20 µM (≈ 54.7 µg/mL); in assay [8], ≥ 160 µM.
As for `CC[C@H](C)[C@H](NC(=O)CNC(=O)[C@H](CCC(N)=O)NC(=O)[C@H](Cc1ccccc1)NC(=O)[C@@H](NC(=O)[C@H](CCCCN)NC(=O)[C@H](CCCCN)NC(=O)[C@H](CC(C)C)NC(=O)[C@H](C)NC(=O)[C@H](CC(N)=O)NC(=O)[C@H](CC(C)C)NC(=O)CN)C(C)C)C(=O)N[C@@H](Cc1cnc[nH]1)C(=O)N[C@@H](CCC(=O)O)C(=O)N[C@@H](C)C(=O)N[C@H](C(=O)N[C@@H](CCCCN)C(=O)N[C@@H](CC(C)C)C(=O)N[C@H](C(=O)N[C@@H](CC(N)=O)C(=O)N[C@@H](CC(N)=O)C(=O)N[C@@H](Cc1cnc[nH]1)C(=O)N[C@H](C(=O)N[C@@H](CCCCN)C(=O)O)C(C)C)[C@@H](C)CC)[C@@H](C)CC` [GLNALKKVFQGIHEAIKLINNHVK], the values for the MIC in [6] and in assay [8] were 20 µM (≈ 53.7 µg/mL) and ≥ 80 µM, respectively.
Regarding `CC(C)C[C@H](NC(=O)[C@H](CCCN=C(N)N)NC(=O)[C@H](CCCN=C(N)N)NC(=O)[C@H](Cc1ccccc1)NC(=O)[C@H](CCCN=C(N)N)NC(=O)CN)C(=O)N[C@@H](CCCN=C(N)N)C(=O)N[C@@H](CCCCN)C(=O)N[C@@H](CCCCN)C(=O)N[C@H](C(=O)N[C@@H](CCCN=C(N)N)C(=O)N[C@@H](CCCCN)C(N)=O)[C@@H](C)O` [GRFRRLRKKTRK], the MIC in assay [6] was 128 µM (≈ 205 µg/mL); against Escherichia coli UB1005, ≥ 128 µM; in [13], ≥ 128 µM; in assay [12], > 128 µM; in assay [14] it was > 128 µM; in assay [15] it was > 128 µM.
Regarding `CC[C@H](C)[C@H](NC(=O)[C@@H](NC(=O)[C@@H]1CCCN1C(=O)[C@H](CC(C)C)NC(=O)[C@@H](NC(=O)[C@@H](N)CO)[C@@H](C)CC)[C@@H](C)O)C(=O)N[C@H](C(=O)N[C@@H](CO)C(=O)N[C@@H](Cc1ccccc1)C(=O)N[C@@H](CC(C)C)C(=O)N[C@@H](CO)C(=O)N[C@@H](CCCCN)C(=O)N[C@@H](Cc1ccccc1)C(=O)N[C@@H](CC(C)C)C(N)=O)C(C)C` [SILPTIVSFLSKFL], in assay [8], the minimum inhibitory concentration (MIC) worked out at 24 µM (≈ 37.5 µg/mL).
Take `CC[C@H](C)[C@H](NC(=O)[C@H](CCSC)NC(=O)[C@@H](N)CO)C(=O)N[C@@H](CO)C(=O)N[C@H](C(=O)N[C@@H](CC(C)C)C(=O)N[C@@H](CCCCN)C(=O)N[C@@H](CC(N)=O)C(=O)N[C@@H](CC(C)C)C(=O)NCC(=O)N[C@@H](CCCCN)C(=O)N[C@H](C(=O)NCC(=O)N[C@@H](CC(C)C)C(=O)NCC(=O)N[C@@H](Cc1ccccc1)C(=O)N[C@H](C(=O)N[C@@H](C)C(=O)N[C@H]1CSSC[C@@H](C(=O)O)NC(=O)[C@H](CCC(N)=O)NC(=O)[C@H](CCCCN)NC(=O)[C@H](CC(N)=O)NC(=O)[C@H](C(C)C)NC(=O)[C@H](CCCCN)NC1=O)C(C)C)C(C)C)C(C)C` [SMISVLKNLGKVGLGFVACKVNKQC]: the minimum inhibitory concentration (MIC) was ≥ 110 µM in assay [16], 3.5 µM (≈ 9.22 µg/mL) in assay [6] and ≥ 60 µM in [8].
In the case of `CC(C)[C@H](N)C(=O)N[C@@H](CCCCN)C(=O)N[C@@H](CCCN=C(N)N)C(=O)N[C@@H](Cc1c[nH]c2ccccc12)C(=O)N[C@@H](CCCCN)C(=O)N[C@@H](CCCCN)C(=O)N[C@@H](Cc1ccccc1)C(=O)N[C@@H](Cc1c[nH]c2ccccc12)C(=O)N[C@@H](CCCN=C(N)N)C(=O)N[C@@H](CCCCN)C(=O)N[C@@H](Cc1c[nH]c2ccccc12)C(=O)N[C@@H](CCCCN)C(=O)N[C@@H](CCCCN)C(=O)N[C@@H](Cc1c[nH]c2ccccc12)C(=O)N[C@@H](Cc1c[nH]c2ccccc12)C(N)=O` [VKRWKKFWRKWKKWW], the minimum inhibitory concentration (MIC) stood at 2.06 µM (≈ 4.69 µg/mL) in the assay with Bacillus subtilis, 1.03 µM (≈ 2.34 µg/mL) in assay [5], 8.24 µM (≈ 18.7 µg/mL) in assay [6] and 2.06 µM (≈ 4.69 µg/mL) in assay [7].
